The text below walks through data of patent US10414811B2, “Protease-resistant lipidated GLP-1 analogs” (MEDIMMUNE LIMITED, priority 2015, dated 2019).

Molecules are shown by their SMILES. Where two headings read alike, the source gives them in different places. Numbered stars: 1 amine (or outer) side, 2 acyl side, 3 side chain; on linkers, the order of the positions; unused ones are H or OH. Square brackets hold non-standard residues; d marks the D form. Side chains are listed from the residue outwards. Peptide text beside a SMILES is read from it. * marks the point of attachment. γGlu = O=C(O)[C@H](CCC(=O)[*:2])N[*:1]; αMeF = C[C@](N)(Cc1ccccc1)C(=O)O; αMeK = C[C@](N)(CCCCN)C(=O)O; Lauroyl = CCCCCCCCCCCC(=O)*; αMeS = C[C@](N)(CO)C(=O)O; AEEA = NCCOCCOCC(=O)O; Aib = CC(C)(N)C(=O)O

What all share (type): cell-based
Common to all, as to details: tris-lipidated peptides

Test [1] has as its target T1, human GLP-1 receptor (GLP-1R) (Homo sapiens, UniProt P43220).
T1 construct: expressed in transfected cells
As to the kind of experiment: cAMP assay, human GLP-1R cells. In outline:
(§1)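 Peptide-stimulated cAMP measured by two-step HTRF after a 30 min room-temperature incubation with receptor-expressing cells (hGLP-1R, hGIPR at 1×10^5 cells/ml; hGCGR at 2×10^5 cells/ml). Duplicate dilutions; EC50 from 4-parameter logistic fit of % Delta F.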
For orientation: Changes in cAMP serve as a functional read-out for many G protein-coupled receptors.

In test [2] the target is T2, human glucagon receptor (GCGR) (Homo sapiens, UniProt P47871).
T2 construct: expressed in transfected cells
T2 sequence (P47871 26-477): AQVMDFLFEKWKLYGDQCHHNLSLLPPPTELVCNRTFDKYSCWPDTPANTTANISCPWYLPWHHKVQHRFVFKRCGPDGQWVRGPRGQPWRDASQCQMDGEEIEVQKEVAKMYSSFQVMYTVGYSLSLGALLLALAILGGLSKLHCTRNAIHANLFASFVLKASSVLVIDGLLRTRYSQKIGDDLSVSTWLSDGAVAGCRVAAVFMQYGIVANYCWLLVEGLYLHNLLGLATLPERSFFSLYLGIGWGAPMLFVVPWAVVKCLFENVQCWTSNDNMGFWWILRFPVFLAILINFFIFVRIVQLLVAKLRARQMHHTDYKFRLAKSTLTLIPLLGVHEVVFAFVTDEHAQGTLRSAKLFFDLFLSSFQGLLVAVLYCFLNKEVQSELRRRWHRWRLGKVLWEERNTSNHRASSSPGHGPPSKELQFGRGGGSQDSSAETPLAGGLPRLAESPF
As to the kind of experiment: cAMP assay, human GCGR cells. The essentials:
as §1

For test [3], the target named is T3, human glucose-dependent insulinotropic peptide receptor (GIPR) (Homo sapiens, UniProt P48546).
T3 construct: expressed in transfected cells
T3 sequence (P48546 22-466): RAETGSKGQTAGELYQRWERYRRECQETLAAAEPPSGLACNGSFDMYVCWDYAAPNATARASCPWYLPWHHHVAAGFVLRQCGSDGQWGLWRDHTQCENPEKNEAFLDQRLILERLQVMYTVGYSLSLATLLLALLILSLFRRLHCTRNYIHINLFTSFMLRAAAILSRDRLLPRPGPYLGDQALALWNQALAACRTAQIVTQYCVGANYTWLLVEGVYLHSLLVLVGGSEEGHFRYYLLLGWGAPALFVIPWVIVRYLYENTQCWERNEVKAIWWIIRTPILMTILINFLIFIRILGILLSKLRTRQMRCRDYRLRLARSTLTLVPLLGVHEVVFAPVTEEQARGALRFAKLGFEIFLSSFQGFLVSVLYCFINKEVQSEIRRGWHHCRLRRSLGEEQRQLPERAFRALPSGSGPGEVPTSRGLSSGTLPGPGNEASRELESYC
Nature of the test: cAMP assay, human GIPR cells. The essentials: as §1

Test [4] addresses T4, GLP-1R (INS1e assay) (Rattus norvegicus, UniProt P32301).
T4 construct: endogenous in cells; host or cells: INS-1E cells
T4 sequence (P32301 22-463): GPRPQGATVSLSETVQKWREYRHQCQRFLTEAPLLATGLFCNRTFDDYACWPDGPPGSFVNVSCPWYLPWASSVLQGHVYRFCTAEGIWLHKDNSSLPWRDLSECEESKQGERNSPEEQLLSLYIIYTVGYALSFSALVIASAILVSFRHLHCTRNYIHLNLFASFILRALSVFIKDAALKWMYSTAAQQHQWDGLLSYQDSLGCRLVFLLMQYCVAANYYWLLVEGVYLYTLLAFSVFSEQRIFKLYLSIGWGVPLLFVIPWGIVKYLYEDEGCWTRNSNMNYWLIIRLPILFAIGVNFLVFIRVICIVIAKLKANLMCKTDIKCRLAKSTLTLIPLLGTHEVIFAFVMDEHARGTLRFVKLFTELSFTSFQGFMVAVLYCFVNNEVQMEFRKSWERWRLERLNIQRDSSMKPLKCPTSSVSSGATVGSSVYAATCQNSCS
Nature of the test: INS1e assay, cAMP activity at GLP-1R. The essentials:
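cAMP was quantified by two-step HTRF, using anti-cAMP cryptate donor and cAMP-d2 acceptor, each diluted 1/20 in conjugate and lysis buffer. EC50 values of the synthetic peptides were derived from the cAMP readout.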

Where [5] appears, read: mean of n1 and n2, read-out: Primary assay EC50 Mean pM GLP-1R.
[6] abbreviates: replicate n1, read-out: Primary assay EC50 GLP-1R n1.
The mark [7] stands for this setting: replicate n2, read-out: Primary assay EC50 GLP-1R n2.
Where [8] appears, read: first replicate, read-out: Primary assay EC50 Gluc-R (n1).
Where [9] appears, read: first replicate, read-out: Primary assay EC50 GIP-R (n1).
Where [10] appears, read: mean of n1 and n2, read-out: INS1e assay EC50 Mean pM GLP-1R.
Where [11] appears, read: replicate n1, read-out: INS1e assay EC50 GLP-1R n1.
The mark [12] stands for this setting: replicate n2, read-out: INS1e assay EC50 GLP-1R n2.
The mark [13] stands for this setting: second replicate, read-out: Primary assay EC50 Gluc-R (n2).
The mark [14] stands for this setting: second replicate, read-out: Primary assay EC50 GIP-R (n2).

T1 sequence (P43220 24-463): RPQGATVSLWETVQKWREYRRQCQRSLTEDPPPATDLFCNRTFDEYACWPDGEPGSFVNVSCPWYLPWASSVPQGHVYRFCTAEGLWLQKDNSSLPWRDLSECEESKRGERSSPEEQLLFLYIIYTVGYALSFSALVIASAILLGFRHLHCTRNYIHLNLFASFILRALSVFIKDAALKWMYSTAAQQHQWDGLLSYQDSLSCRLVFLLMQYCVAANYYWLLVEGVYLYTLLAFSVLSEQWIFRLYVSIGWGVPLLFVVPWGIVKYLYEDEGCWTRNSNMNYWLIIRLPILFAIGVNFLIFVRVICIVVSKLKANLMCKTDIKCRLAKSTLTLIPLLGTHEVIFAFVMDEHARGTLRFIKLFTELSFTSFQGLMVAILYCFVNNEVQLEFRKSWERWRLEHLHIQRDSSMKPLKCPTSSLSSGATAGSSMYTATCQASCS

Consider `CCCCCCCCCCCC(=O)N[C@@H](CCC(=O)NCCOCCOCC(=O)NCCOCCOCC(=O)NCCCC[C@H](NC(=O)[C@H](C)NC(=O)[C@@H](NC(=O)[C@H](Cc1ccccc1)NC(=O)[C@H](CCCCNC(=O)COCCOCCNC(=O)COCCOCCNC(=O)CC[C@H](NC(=O)CCCCCCCCCCC)C(=O)O)NC(=O)[C@](C)(CCCCN)NC(=O)[C@H](C)NC(=O)[C@H](C)NC(=O)[C@H](CCC(=O)O)NC(=O)CNC(=O)[C@H](CCC(=O)O)NC(=O)[C@H](CC(C)C)NC(=O)[C@H](CCCCNC(=O)COCCOCCNC(=O)COCCOCCNC(=O)CC[C@H](NC(=O)CCCCCCCCCCC)C(=O)O)NC(=O)[C@H](CO)NC(=O)[C@](C)(CO)NC(=O)[C@@H](NC(=O)[C@H](CC(=O)O)NC(=O)[C@H](CO)NC(=O)[C@@H](NC(=O)[C@](C)(Cc1ccccc1)NC(=O)[C@H](CO)NC(=O)CNC(=O)[C@H](CCC(=O)O)NC(=O)C(C)(C)NC(=O)[C@@H](N)Cc1c[nH]cn1)[C@@H](C)O)C(C)C)[C@@H](C)CC)C(=O)N[C@H](C(=O)N[C@H](C(=O)N[C@@H](CCC(=O)O)C(=O)NCC(=O)NCC(N)=O)C(C)C)C(C)C)C(=O)O` [compound 466] (H-H[Aib]EGS[αMeF]TSDV[αMeS]SK([AEEA-AEEA-γGlu-Lauroyl])LEGEAA[αMeK]K([AEEA-AEEA-γGlu-Lauroyl])FIAK([AEEA-AEEA-γGlu-Lauroyl])VVEGG-NH2; N-terminus assumed), for which the EC50 (in general, the midpoint of the concentration-response curve) in test [1] (setting [5]) stood at 22.4 pM; in test [1] (setting [6]) it was 17.2 pM; in test [1] (setting [7]), 27.5 pM; in test [2] (setting [8]) it was 20.2 nM; in test [3] (setting [9]) it was 20.2 nM; in test [4] (setting [10]), 3200 pM. Besides, the EC50 in test [4] (setting [11]) came to 3860 pM; in test [4] (setting [12]), 2550 pM.

As for `CCCCCCCCCCCC(=O)N[C@@H](CCC(=O)NCCOCCOCC(=O)NCCOCCOCC(=O)NCCCC[C@H](NC(=O)[C@H](C)NC(=O)[C@@H](NC(=O)[C@H](Cc1ccccc1)NC(=O)[C@H](CCC(=O)O)NC(=O)[C@](C)(CCCCN)NC(=O)[C@H](C)NC(=O)[C@H](C)NC(=O)[C@H](CCC(=O)O)NC(=O)[C@H](CCCCNC(=O)COCCOCCNC(=O)COCCOCCNC(=O)CC[C@H](NC(=O)CCCCCCCCCCC)C(=O)O)NC(=O)[C@H](CCC(=O)O)NC(=O)[C@H](CCCCNC(=O)COCCOCCNC(=O)COCCOCCNC(=O)CC[C@H](NC(=O)CCCCCCCCCCC)C(=O)O)NC(=O)[C@H](Cc1ccc(O)cc1)NC(=O)[C@H](CO)NC(=O)[C@](C)(CO)NC(=O)[C@@H](NC(=O)[C@H](CC(=O)O)NC(=O)[C@H](CO)NC(=O)[C@@H](NC(=O)[C@](C)(Cc1ccccc1)NC(=O)[C@H](CO)NC(=O)CNC(=O)[C@H](CCC(=O)O)NC(=O)C(C)(C)NC(=O)[C@@H](N)Cc1c[nH]cn1)[C@@H](C)O)C(C)C)[C@@H](C)CC)C(=O)N[C@H](C(=O)N[C@H](C(=O)N[C@@H](CCC(=O)O)C(=O)NCC(=O)NCC(N)=O)C(C)C)C(C)C)C(=O)O` [compound 467] (H-H[Aib]EGS[αMeF]TSDV[αMeS]SYK([AEEA-AEEA-γGlu-Lauroyl])EK([AEEA-AEEA-γGlu-Lauroyl])EAA[αMeK]EFIAK([AEEA-AEEA-γGlu-Lauroyl])VVEGG-NH2; N-terminus assumed), the EC50 turned out to be 55.4 pM in test [1] (setting [5]); 49.3 pM in test [1] (setting [6]); 61.5 pM in test [1] (setting [7]); 19.8 nM in test [2] (setting [13]); 19.8 nM in test [3] (setting [14]); 8920 pM in test [4] (setting [10]). The figures for the EC50 in test [4] (setting [11]) and in test [4] (setting [12]) were 9920 pM and 7910 pM, respectively.

Regarding `CCCCCCCCCCCC(=O)N[C@@H](CCC(=O)NCCOCCOCC(=O)NCCOCCOCC(=O)NCCCC[C@H](NC(=O)[C@H](C)NC(=O)[C@@H](NC(=O)[C@H](Cc1ccccc1)NC(=O)[C@H](CCC(=O)O)NC(=O)[C@](C)(CCCCN)NC(=O)[C@H](C)NC(=O)[C@H](CCCCNC(=O)COCCOCCNC(=O)COCCOCCNC(=O)CC[C@H](NC(=O)CCCCCCCCCCC)C(=O)O)NC(=O)[C@H](CCC(=O)O)NC(=O)CNC(=O)[C@H](CCC(=O)O)NC(=O)[C@H](CCCCNC(=O)COCCOCCNC(=O)COCCOCCNC(=O)CC[C@H](NC(=O)CCCCCCCCCCC)C(=O)O)NC(=O)[C@H](Cc1ccc(O)cc1)NC(=O)[C@H](CO)NC(=O)[C@](C)(CO)NC(=O)[C@@H](NC(=O)[C@H](CC(=O)O)NC(=O)[C@H](CO)NC(=O)[C@@H](NC(=O)[C@](C)(Cc1ccccc1)NC(=O)[C@H](CO)NC(=O)CNC(=O)[C@H](CCC(=O)O)NC(=O)C(C)(C)NC(=O)[C@@H](N)Cc1c[nH]cn1)[C@@H](C)O)C(C)C)[C@@H](C)CC)C(=O)N[C@H](C(=O)N[C@H](C(=O)N[C@@H](CCC(=O)O)C(=O)NCC(=O)NCC(N)=O)C(C)C)C(C)C)C(=O)O` [compound 469] (H-H[Aib]EGS[αMeF]TSDV[αMeS]SYK([AEEA-AEEA-γGlu-Lauroyl])EGEK([AEEA-AEEA-γGlu-Lauroyl])A[αMeK]EFIAK([AEEA-AEEA-γGlu-Lauroyl])VVEGG-NH2; N-terminus assumed), the EC50 is 45.4 pM in test [1] (setting [5]); 41.8 pM in test [1] (setting [6]); 49 pM in test [1] (setting [7]); 19.8 nM in test [2] (setting [13]); 19.8 nM in test [3] (setting [14]); 4900 pM in test [4] (setting [10]). The EC50 in test [4] (setting [11]) is 6900 pM; in test [4] (setting [12]) it was 2890 pM.

On to `CCCCCCCCCCCC(=O)N[C@@H](CCC(=O)NCCOCCOCC(=O)NCCOCCOCC(=O)NCCCC[C@H](NC(=O)[C@H](CO)NC(=O)[C@](C)(CO)NC(=O)[C@@H](NC(=O)[C@H](CC(=O)O)NC(=O)[C@H](CO)NC(=O)[C@@H](NC(=O)[C@](C)(Cc1ccccc1)NC(=O)[C@H](CO)NC(=O)CNC(=O)[C@H](CCC(=O)O)NC(=O)C(C)(C)NC(=O)[C@@H](N)Cc1c[nH]cn1)[C@@H](C)O)C(C)C)C(=O)N[C@@H](CC(C)C)C(=O)N[C@@H](CCC(=O)O)C(=O)NCC(=O)N[C@@H](CCC(=O)O)C(=O)N[C@@H](C)C(=O)N[C@@H](C)C(=O)N[C@@](C)(CCCCN)C(=O)N[C@@H](CCCCNC(=O)COCCOCCNC(=O)COCCOCCNC(=O)CC[C@H](NC(=O)CCCCCCCCCCC)C(=O)O)C(=O)N[C@@H](Cc1ccccc1)C(=O)N[C@H](C(=O)N[C@@H](C)C(=O)N[C@@H](Cc1ccccc1)C(=O)N[C@@H](CCCCNC(=O)COCCOCCNC(=O)COCCOCCNC(=O)CC[C@H](NC(=O)CCCCCCCCCCC)C(=O)O)C(=O)N[C@H](C(=O)N[C@@H](CCC(=O)O)C(=O)NCC(=O)NCC(N)=O)C(C)C)[C@@H](C)CC)C(=O)O` [compound 482] (H-H[Aib]EGS[αMeF]TSDV[αMeS]SK([AEEA-AEEA-γGlu-Lauroyl])LEGEAA[αMeK]K([AEEA-AEEA-γGlu-Lauroyl])FIAFK([AEEA-AEEA-γGlu-Lauroyl])VEGG-NH2), for which the EC50 in test [1] (setting [5]) was determined as 36.3 pM; in test [1] (setting [6]), 28.3 pM; in test [1] (setting [7]), 44.2 pM; in test [2] (setting [8]), 20 nM; in test [3] (setting [9]) it was 20 nM; in test [4] (setting [10]), 5860 pM. Also, the EC50 is 8570 pM in test [4] (setting [11]) and 3150 pM in test [4] (setting [12]).
